Tested on: edemas of the rat ears induced by TPA
Test: TPA-induced rat ear edema inhibition test
Assay type: in vivo, Wistar rats
Settings: for Edema thickness: topical in acetone 30 min after TPA, measured after 8 hours
Procedure: The anti-inflammatory activity of the lignan compound isolated and purified in <Example 1> was tested in animal models. The anti-inflammatory activity was measured by edema inhibition test on rats. As the test animals, 5-week-old Wistar rats (DaeHan Biolink Co., Ltd, Korea) were used. The animals were provided with standard pellet forming rat feed (Cheiljedang Corporation, Korea) and given freely to feed and water. Also, the animals were housed in conditions of 12-hr light/12-hr dark cycle, temperature of 25±2° C. and humidity of 60±10%. Inflammation inducing agent TPA (12-O-tetradecanoylphorbol-13-acetate; Sigma) was dissolved in acetone to a concentration of 200 μg/mL. The edemas of the rat ears were induced by applying the TPA solution locally to each of the outer and inner faces of the ear in an amount of 10 μl/ear (4 μg/ear). The macelignan purified in <Example 1> and non-steroidal anti-inflammatory drug indomethacin as a control substance were dissolved in acetone and used in amounts of 20, 200 and 2000 μg/ear. Each of the macelignan and the indomethacin was applied locally to the rat ears at 30 minutes after treatment with TPA. A control group was locally applied with acetone. The thickness of the rat ears was measured with a caliper 8 hours after treatment with each of the substances. An increase in the ear thickness in the group treated with the sample was compared to that of the group untreated with the sample, and inflammation inhibitory effect was measured by calculating percent edema inhibition.

## COc1ccc2c(c1)c(CC(=O)O)c(C)n2C(=O)c1ccc(Cl)cc1 [indomethacin, reference compound]
Dose 20 μg/ear
  Edema inhibition: 25.0%
  Edema thickness: 185 ± 5 μm
Dose 200 μg/ear
  Edema inhibition: 56.5%
  Edema thickness: 108 ± 8 μm
Dose 2000 μg/ear
  Edema inhibition: 74.2%
  Edema thickness: 64 ± 7 μm

Source: patent US8853264B2, “Use of lignan compounds for treating or preventing inflammatory disease” (Newtree Industry Co., Ltd., priority 2005, dated 2014)
